Experimental data: ChEMBL document CHEMBL1158738, “Constituents of the leaves and twigs of Calyptranthes pallens collected from an experimental plot in Southern Florida” (J Nat Prod, 2005)
In brackets after ≈: the same amount, converted by molar mass.

Assays:
LNCaP = assay: Cytotoxicity against human LNCAP cells; format: functional; details: read-out: ED50 (the source's name)
KB = assay: Cytotoxicity against human KB cells; format: functional; details: read-out: ED50 (the source's name)
[1] = Cytotoxicity against HUVEC; format: cell-based; details: human, HUVEC cells; read-out: ED50 (the source's name)
MCF7 = assay: Cytotoxicity against human MCF7 cells; format: functional; details: read-out: ED50 (the source's name)
Lu1 = assay: Cytotoxicity against human Lu1 cells; format: functional; details: read-out: ED50 (the source's name)
[2] = Cytotoxicity against human telomerase reverse transcriptase human RPE1 cells; format: functional, TERT-RPE1; details: RPE-1, read-out: ED50 (the source's name)

SMILES	EC50 (LNCaP) [µg/mL]	EC50 (KB) [µg/mL]	CC50 [1] [µg/mL]	EC50 (MCF7) [µg/mL]	EC50 (Lu1) [µg/mL]	EC50 [2] [µg/mL]
CCCC(=O)c1c(O)c(C)c(OC)c(Cc2c(O)c(C(=O)CCC)c(O)c(C)c2OC)c1O	6.6 (≈ 14.3 µM)	2.7 (≈ 5.86 µM)	6.1 (≈ 13.2 µM)	7.3 (≈ 15.9 µM)	19.4 (≈ 42.1 µM)	–
CC1=CC[C@]2(C(=O)O)CC[C@]3(C)[C@H](CC[C@@H]4[C@@]5(C)CC[C@H](O)C(C)(C)[C@@H]5CC[C@]43C)[C@H]2[C@@H]1C	7.3 (≈ 16 µM)	> 20	10.4 (≈ 22.8 µM)	9.7 (≈ 21.2 µM)	12.9 (≈ 28.2 µM)	–
COc1cc([C@@H]2c3cc(O)c(OC)cc3C[C@@H](C)[C@H]2C)ccc1O [ISOGUAIACIN]	11.8 (≈ 35.9 µM)	6.4 (≈ 19.5 µM)	14.7 (≈ 44.8 µM)	12.4 (≈ 37.8 µM)	15.7 (≈ 47.8 µM)	> 20
